Publication PMC11124852 (Pharmaceutics, 2024)
Converted amounts (≈) assume the structure as drawn. “And” between values parts separate entries of the source, which are not always exact repeats. Identical values can stand only once.

Legend:
[1] = test system: mouse macrophage cell line J774.2; assay: In vitro cytotoxicity, MTT method; details: for SI: selectivity index CC50/IC50
Experimental: (§1) The mouse macrophage cell line J774.2 (ATCC® TIB-67) was used for the evaluation of the in vitro cytotoxicity. Cells were cultured in RPMI medium supplemented with 10% SFB, […], and glutamine (2 mM) at 37 °C and in an atmosphere of 5% CO2. The medium was changed at intervals of every 2 to 3 days. For the cytotoxicity assays, 1 × 10^6 cells were incubated with different concentrations of the compounds (0.78 to 200 µM) at 37 °C for 48 h in an atmosphere of 5% CO2. Cells in the presence of the maximum concentration of DMSO (0.2%) were included as a negative control. The metabolic activity of the cells was determined using the MTT method. The percentage of cell viability was calculated, and the mean cytotoxic concentration (CC50) was determined via a Probit analysis. Three independent assays were performed in triplicate each. Finally, the selectivity index (SI) was calculated using the following formula CC50/IC50.

[2] = In vitro cytotoxicity, MTT method; details: mouse, J774.2 macrophage cells, CC50 (µM), macrophage cell line J774.2, 48 h, MTT; means of three experiments
Experimental: as §1

[3] = biological target: SARS-CoV-2 spike RBD to human ACE2 (Severe acute respiratory syndrome coronavirus 2, UniProt P0DTC2); assay: biochemical; assay type: binding, SARS-CoV-2 / human; details: for IC50: IC50 (µM)
rats = details: concentrations of 0.03, 0.3, and 3%; cited from earlier work
[4] = biological target: S protein with the ACE2 host receptor; details: cell-free ELISA-type assay; cited from earlier work
meiobenthic nematodes = details: cited from earlier work
S protein = details: block the S protein and inhibit protein-mediated intercellular fusion; cited from earlier work
[5] = test system: S protein and its host cell receptor ACE2; details: cited from earlier work
[6] = test system: S protein and its host cell receptor ACE2; details: cited from earlier work; remark: listed apart in the source

O=C(Nc1ccc2c(O)c(/N=N/c3ccc(/N=N/c4ccc(S(=O)(=O)[O-])cc4)cc3)c(S(=O)(=O)[O-])cc2c1)c1ccccc1.[Na+].[Na+] [DRI-1, [Na+].[Na+].c1(/N=N/c2ccc(cc2)/N=N/c2c(cc3c(c2O)ccc(c3)NC(=O)c2ccccc2)S(=O)(=O)[O-])ccc(cc1)S(=O)(=O)[O-]]
CC50 ([1]; macrophage cell line J774.2, 48 h, MTT, means of three experiments): 94.5 ± 0.96 µM
SI [1]: 7.25
CC50 at 48 h [2]: 94.5 µM
inhibition at 50 µM [3]: 90.59 ± 0.54%
IC50 [3]: 13 ± 0.71 µM

O=C(Nc1ccc2c(O)cc(S(=O)(=O)O)cc2c1)Nc1ccc2c(O)cc(S(=O)(=O)O)cc2c1 [DRI-2, c12c(ccc(c1)NC(=O)Nc1cc3c(cc1)c(cc(c3)S(=O)(=O)O)O)c(cc(c2)S(=O)(=O)O)O]
SI [1]: 22.6 and 22.62
inhibition at 50 µM [3]: 90.8 ± 1.7%
IC50 [3]: 8.84 ± 4.3 µM

CCN(Cc1cccc(S(=O)(=O)O)c1)c1ccc(C(=C2C=CC(=[N+](CC)Cc3cccc(S(=O)(=O)O)c3)C=C2)c2ccccc2)cc1 [DRI-3, guinea green B]
toxicity in rats (rats): initial growth depression in rats, as well as the appearance of malignant tumors
SI [1]: 93.4 and 93.45
inhibition at 50 µM [3]: 99.65 ± 0.25%
IC50 [3]: 2.14 ± 0.97 µM

CCOc1ccc(NS(=O)(=O)c2ccc(NC(=O)c3ccc(-c4ccccc4)cc3)cc2)cc1 [DRI-4, S(=O)(=O)(Nc1ccc(cc1)OCC)c1ccc(NC(=O)c2ccc(cc2)c2ccccc2)cc1]
SI [1]: 8.14
CC50 at 48 h [2]: > 200 µM
inhibition at 50 µM [3]: 76.4 ± 1%
IC50 [3]: 24.6 ± 2.5 µM

CC(=O)Nc1ccc(OS(=O)(=O)c2ccc3c4c(cccc24)C(=O)N3)c2ccccc12 [DRI-5, CC(=O)Nc1ccc(OS(=O)(=O)c2ccc3NC(=O)c4cccc2c34)c2ccccc12]
SI [1]: 9.21
CC50 at 48 h [2]: 126 ± 2.3 µM
inhibition at 50 µM [3]: 69.9 ± 1.2%
IC50 [3]: 13.7 ± 0.12 µM

O=C(Nc1ccc2cc(S(=O)(=O)O)cc(O)c2c1)c1ccc(-c2ccc(C(=O)Nc3ccc4cc(S(=O)(=O)O)cc(O)c4c3)cc2)cc1 [DRI-C91005]
IC50 [4]: 0.16 µM

C[C@]12CC[C@@H]3c4ccc(OC(=O)c5ccccc5)cc4CC[C@H]3[C@@H]1CC[C@@H]2O [estradiol benzoate]
concentration from which significant toxicity starts (meiobenthic nematodes): ≥ 4.3 pg/mL
IC50 (S protein): 1.02 µM

CCC(C)n1ncn(-c2ccc(N3CCN(c4ccc(OCC5COC(Cn6cncn6)(c6ccc(Cl)cc6Cl)O5)cc4)CC3)cc2)c1=O (stereo not drawn) [itraconazole]
IC50 (S protein): 0.45 µM

COc1ccc2c(O[C@@H]3C[C@H]4C(=O)N[C@]5(C(=O)NS(=O)(=O)C6CC6)C[C@H]5/C=C\CCCCN(C)C(=O)[C@@H]4C3)cc(-c3nc(C(C)C)cs3)nc2c1C [simeprevir]
Kd [5]: 0.812 µM

CS(=O)(=O)c1cccc(C[C@H](NC(=O)c2c(Cl)cc3c(c2Cl)CCN(C(=O)c2ccc4ccoc4c2)C3)C(=O)O)c1 [sodium lifitegrast]
Kd [5]: 0.00192 µM

CC1=C(C)C(=O)O[C@@H]([C@@H](C)[C@@]2(O)CC[C@H]3[C@@H]4[C@@H]5O[C@@H]5[C@@]5(O)CC=CC(=O)[C@]5(C)[C@H]4CC[C@@]32C)C1 [withanone]
IC50 [6]: 0.33 ng/mL (≈ 0.701 nM)
